In patent publication EP0110955B1, “BRAIN-SPECIFIC DRUG DELIVERY” (UNIVERSITY OF FLORIDA, priority 1982, dated 1983):

Legend:
[1] = Enzymatic hydrolytic cleavage and rate of oxidation of compound 5c in human plasma (HPLC); type: in vitro ADME; details: 80% plasma, 37°C, pseudo first order, read-out: apparent half-lives for the disappearance
Method: (§1) A high pressure liquid chromatography (HPLC) method was developed for the studies of the degradation of the dihydropyridine dopamine derivative. The chromatographic analysis was performed on a component system consisting of a Waters Associate Model 6000A solvent delivery system, Model U6K injector and Model 440 dual channel absorbance detector operated at 254 and 280 nm. A 30 cm x 3.9 mm (internal diameter) reverse phase µBondapak C18 column (Waters Associates), operated at ambient temperature, was used for all separations. The mobile phase used for the separation of the dihydropyridine derivative, its degradation products and oxidation products consisted of 0.005 M solution of 1-heptanesul- fonic acid sodium salt (PIC B-7 Eastman Kodak) in CH3CN; 0.01 M aqueous dibasic ammonium phosphate (2.5:1). A peak was always shown at a retention time of 2.2 min which is believed to be a monodeacylated dihydropyridine derivative, since it eventually did result in 6a.
The freshly collected plasma used was obtained at the Civitan Regional Blood Center, Inc. (Gainesville, Florida) and contained about 80% plasma diluted with anticoagulant citrate phosphate dextrose solution U.S.P. The plasma was stored in a refrigerator and used the next day. […] When all samples had been collected, they were centrifuged and the supernatants were filtered through Whatman 1 filter papers and analyzed to HPLC.

[2] = Enzymatic hydrolytic cleavage and rate of oxidation of compound 5c in rat liver homogenate (HPLC); type: in vitro ADME, Sprague-Dawley rats; details: rat, pH 7.4; 20% liver homogenate, 37°C, pseudo first order; read-out: apparent half-lives for the disappearance
Method: as §1
The liver homogenate was prepared by the following method. Three Sprague-Dawley rats were killed by decapitation and the livers were removed, weighed and homogenized by tissue homogenizer in 0.11 M aqueous phosphate buffer, pH 7.4, to make 20% liver homogenate. […] When all samples had been collected, they were centrifuged and each supernatant was filtered through Whatman 1 filter paper and analyzed by HPLC.

[3] = tested on: brain-dopamine concentrations; test: Changes in brain-dopamine concentrations after intrajugular administration of 5c; type: in vivo; details: 5c administered intrajugularly, some of the rats, others practically none
Method: To determine whether dopamine itself was finally released in the brain upon completion of the aforesaid complex delivery process, 5c was administered intrajugularly and changes in brain-dopamine concentrations following that administration were studied. […] It is known that dopamine and its agonists decrease prolactin secretion following their binding to stereospecific receptors located on lactophors in the anterior pituitary (AP) gland [G.P. Mueller, J.W. Simpkins, J. Meites and K.E. Moore, Neuroendocrinology, 20, 121 (1976); W. Wuttke, E. Cassell and J Meites, Endocrinology, 88, 737 (1971); J.A. Clemens, E.B. Smalstig and C.J. Shaar, Acta Endocrinol., 79, 230 (1975)]. This effect is dose- dependent and it can also be observed in vitro, incubating anterior pituitaries with dopamine or its agonists [R.M. MacLeod Ed. L. Martini and W.F. Ganong, Raven Press].

serum prolactin = test: In vivo effect on pituitary prolactin secretion (17-β-estradiol primed male rats); details: Intravenous administration, 1 mg/kg dose level
Description: Adult male rats (Charles Rivers, CD-1) weighing 200 to 225 g were provided food and water ad libitum for at least one week period to experimentation. To elevate serum prolactin levels, each rat received a single s.c. implant of a Silastic tube (1.57 mm interior diameter, 5 mm x 3.15 mm overall size) packed with crystalline 17-,8-estradiol. Two days later the rats were lightly anesthetized with ether and a small incision was made over the right jugular vein for intravenous (LV.) administration of the test drugs. Compound 6a was injected at a dose of 1 mg/kg body weight/ml saline and groups of six rats were decapitated at 15, 30, 60 and 120 min later to collect blood samples. Control rats (time 0) received an I.V. injection of the saline vehicle and were decapitated 30 min later. Compound 5c was dissolved in 10% ethanol in saline and was injected IV. Rats were decapitated at 15, 30 and 120 min later. Control (time 0) animals received the 10% ethanol vehicle and were sampled 30 min later.
Trunk blood was collected, allowed to clot for 2h and the serum was separated and stored at -20 ° C for subsequent assay for prolactin concentrations. Each serum sample was assayed in duplicate by the doubleantibody radioimmunoassay procedure described by the National Pituitary Agency Hormone Distribution Program. Serum prolactin concentrations are expressed in terms of the PRL-RP-2 reference preparation provided. The intraassay coefficient of variation for 10 replicate samples of pooled serum obtained from male rats was 13.8%.
The effects of compounds 5c and 6a on serum prolactin concentrations were evaluated by one-way analysis of variance and Student-Newman Keuls tests. A probability level of less than 0.05 was selected for significance. See FIGURE 7 and the discussion thereof hereinabove.

[4] = Chemical oxidation by hydrogen peroxide and silver nitrate; type: physicochemical; details: H2O2 or alcoholic AgNO3 solution
Method: The stability of the 1,4-dihydropyridine derivatives (5) was determined in the presence of the oxidizing agents, alcoholic AgN03 and hydrogen peroxide. The in vitro rates of oxidation of the 1,4-dihydropyridine derivative (5c) in 80% plasma, 20% brain homogenate, 20% liver homogenate and in whole blood were determined.
To 10 ml of 30% H202 was added 0.2 g of the dihydropyridine derivative (products of Examples 5 or 8). The mixture was stirred and samples were taken to check the UV spectrum.
To 5 ml of saturated methanolic AgN03 solution was added 1 ml of 5% methanolic solution of the dihydropyridine derivative. The mixture was shaken and left for 5 min for complete precipitation of silver, centrifuged and an aliquot was taken to check the UV spectrum. Complete oxidation to the quaternary salts was observed.

Question: For `CN1C=CCC(C(=O)NCCc2ccc(OC(=O)C(C)(C)C)c(OC(=O)C(C)(C)C)c2)=C1` [5c, 1-Methyl-3-(N-[β-(3,4-dipivalyloxyphenyl)-ethyl]}carbamoyl-1,4-dihydropyridine], which half-life at 3050 µM [1] is on record?
Answer: The half-life at 3050 µM was 51 min.

Question: What about the half-life at 900 µM [2] of the same compound?
Answer: Its half-life at 900 µM is 6 min.

Question: What about the “increase in the dopamine concentrations” value [3] of the same compound?
Answer: Its value is “up to threefold increase”.

Question: What about the “time through which the reduction of serum prolactin was maintained” value (serum prolactin) of the same compound?
Answer: The value was ≥ 120 min.

Question: And the “decrease in serum prolactin concentrations” value (serum prolactin; male rats exposed to 17-β-estradiol)?
Answer: The value was 79%.

Question: And the “oxidation to the corresponding quaternary salt 6c” value [4]?
Answer: Its value is “quantitatively oxidized”.
